ChEMBL document CHEMBL1124940, “N-[(arylmethoxy)phenyl] carboxylic acids, hydroxamic acids, tetrazoles, and sulfonyl carboxamides. Potent orally active leukotriene D4 antagonists of novel structure” (J Med Chem, 1990)

Legend:
Cavia porcellus [1] = assay: Inhibition of ovalbumin-induced broncho constriction in Guinea pig after intragastrical administration of a dose of 25 mg/kg; type: functional; details: po, route intragastric
Cavia porcellus [2] = assay: Tested for the inhibition of LTD4-induced broncho constriction in Guinea pig, injected intraduodenally at a dose of 25 mg/kg; type: functional; details: route intraduodenal
Cavia porcellus [3] = assay: Tested for the inhibition of LTD4-induced bronchoconstriction in Guinea pig, injected intragastrically, dose of 25 mg/kg; type: functional; details: po, route intragastric
Rattus norvegicus = assay: Antiinflammatory effect was studied in a rat carrageenan paw edema (CE) assay at 50 mg/kg; type: functional
Cavia porcellus [4] = assay: Tested for the inhibition of LTD4-induced broncho constriction in Guinea pig, injected intraduodenally at a dose of 5 mg/kg; type: functional; details: route intraduodenal
Cavia porcellus [5] = assay: Inhibition of LTD4-induced broncho constriction in Guinea pig after intragastrical administration of a dose of 25 mg/kg; type: functional; details: po, route intragastric
Cavia porcellus [6] = assay: Inhibition of LTD4-induced broncho constriction in Guinea pig, compound injected intraduodenally at a dose of 25 mg/kg; type: functional; details: route intraduodenal
Cavia porcellus [7] = assay: Inhibition of LTD4-induced broncho constriction in Guinea pig after intragastrical administration of a dose of 3 mg/kg; type: functional; details: po, route intragastric
Cavia porcellus [8] = assay: Tested for the inhibition of ovalbumin- induced bronchoconstriction in Guinea pig, injected intraduodenally, dose of 25 mg/kg; type: functional; details: route intraduodenal
Cavia porcellus [9] = assay: -log dissociation constant was determined In vitro in isolated guinea pig trachea after intraduodenal administration (before 10 min); type: ADME, organism-based; details: in vivo, other
Cavia porcellus [10] = assay: In vitro LTD4-induced bronchoconstriction. i n isolated guinea pig trachea by injecting intraduodenally.; type: functional; details: intraduodenal
Cavia porcellus [11] = assay: In vitro inhibition of ovalbumin-induced bronchoconstriction in isolated guinea pig trachea was determined after intraduodenal aministration; type: functional

| Compound | inhibition in vivo at 25 mg/kg (Cavia porcellus [2]) | inhibition in vivo at 25 mg/kg (Cavia porcellus [5]) | also measured |
| --- | --- | --- | --- |
| Cc1ccc(S(=O)(=O)NC(=O)CCc2cccc(OCc3ccc4ccccc4n3)c2)cc1 | 97% |  | inhibition in vivo at 25 mg/kg (Cavia porcellus [1]): < 26%; inhibition in vivo at 25 mg/kg (Cavia porcellus [3]): < 66% |
| CC(C)Cc1ccc(C(C)C(=O)O)cc1 (centres undefined) [IBUPROFEN] |  |  | inhibition in vivo at 50 mg/kg (Rattus norvegicus): 63% |
| c1ccc2nc(COc3ccc(-c4nn[nH]n4)cc3)ccc2c1 |  |  | inhibition in vivo at 5 mg/kg (Cavia porcellus [4]): < 28% |
| c1ccc(-c2nn[nH]n2)c(OCc2ccc3ccccc3n2)c1 | < 31% |  |  |
| COC(=O)Cc1cccc(OCc2nc3ccccc3s2)c1 |  | < 33% | inhibition in vivo at 25 mg/kg (Cavia porcellus [6]): < 65% |
| CS(=O)(=O)NC(=O)c1cccc(OCc2ccc3ccccc3n2)c1 | 90% | < 66% | inhibition in vivo at 3 mg/kg (Cavia porcellus [7]): 20%; inhibition in vivo at 25 mg/kg (Cavia porcellus [8]): < 13% |
| COC(=O)CCC(=O)N(O)c1cccc(OCc2ccc3ccccc3n2)c1 |  |  | pKb (Cavia porcellus [9]): 6.5; ED50 (Cavia porcellus [10]): 3.3 mg/kg; ED50 (Cavia porcellus [11]): 27.4 mg/kg |
| CONC(=O)Cc1cccc(OCc2nc3ccccc3s2)c1 |  | < -4% |  |
| Cc1ccc(S(=O)(=O)NC(=O)Cc2cccc(OCc3ccc4ccccc4n3)c2)cc1 | < 75% | < 16% |  |
| O=C(O)Cc1ccc(OCc2ccc3ccccc3n2)cc1 |  | < -4% |  |
| c1cc(OCc2ccc3ccccc3n2)cc(-c2nn[nH]n2)c1 | 90% | < 89% | inhibition in vivo at 3 mg/kg (Cavia porcellus [7]): 13% |
| O=C(NO)c1cccc(OCc2ccc3ccccc3n2)c1 | < 33% |  |  |
| O=C(O)CCc1cccc(OCc2ccc3ccccc3n2)c1 |  | < 75% |  |
